Like-named read-outs stand apart in the source and are kept apart here.
Columns and labels:
[1] = cited from earlier work
[2] = Water, HCHO and biuret content of urea compositions by IR and/or HPLC; format: physicochemical; details: average
Protocol: The water, HCHO, NBPT and biuret content of the urea compositions were analyzed by IR and/or HPLC. All concentrations were calculated in μg/ml unless otherwise noted. HPLC samples were prepared by weighing approximately 0.4 grams of sample into a 10-20 mL disposable glass vial or volumetric flask. For high concentration samples (>30% inhibitor), approximately 0.025 grams of sample was weighed into a 100 mL volumetric flask. For lower concentration samples, 10 mL of water was added and the sample was shaken until the sample was dissolved. For higher concentration samples, the sample was diluted to the 100 mL mark with diluent. A disposable dropper was used to transfer the sample into an autosampler vial. The sample was analyzed in duplicate including a diluent blank using the conditions below. The evaluation was carried out by the method of external standard with the calibration using a calibration line. A minimum of 2 sets of standards as set out below were run before and after unknowns. RSD is the relative deviation in rel. %, calculated from three repeats of sampling and two repeats of analysis of each sample (see EP 15688). […]
The chromatogram was evaluated at the wavelength of 214 nm. […]

[3] = SGN of granular product (product specifications); format: physicochemical; details: average
[4] = Crush strength of urea particles; format: physicochemical; details: average strength of 20 particles
Protocol: The crush strength was determined by subjecting individual particles of urea to a measured force, applied by means of a metal plunger. The force, at which the particle fractures, was taken as a measure of strength. The average strength of 20 particles were reported.

| SMILES | half-life of NBPT ([1]; NBPT injected into the melted urea before granulation) | half-life of NBPT ([1]; surface-treated urea) | % HCHO [2] [%] | SGN [3] | Crush Strength [4] [lbs] |
| --- | --- | --- | --- | --- | --- |
| CCCCNP(N)(N)=S [NBPT, N-(n-butyl) thiophosphoric triamide] | more than one | about six | – | – | – |
| NC(N)=O [Urea] | – | – | <0.5 | 277.0 | 7.5 |

Reference: US9790136B2, “Urea and nitrogen stabilizer compositions and methods and systems of making and using thereof” (Koch Agronomic Services, LLC, priority 2013, dated 2017)
